Laboratory results as given in patent publication US20030138773A1, “METHODS OF TRANSCRIPTIONALLY MODULATING GENE EXPRESSION” (priority 1989, published 2003).

How the values were obtained:
[1] = system: mouse mammary tumor virus (MMTV) promoter; assay: MMTV promoter-luciferase reporter, cell clone M10 (high-throughput screen); format: cell-based; conditions: for stimulation of the MMTV promoter in cell clone M10 by steroids: FIG. 43
Excerpt: NIH/3T3 fibroblast cells (ATCC number CRL 1658) were used for transfection of plasmids containing the mouse mammary tumor virus (MMTV) promoter linked to firefly luciferase coding sequences (see below). Cells were propagated in Dulbecco's modified Eagle's medium (DMEM) obtained from Gibco, Grand Island, N.Y. and supplemented with 10% FCS. For high-throughput (HTP) screening, transfected NIH/3T3 clones were transferred to serum free defined medium consisting of Iscove's modified Eagle's medium (IMEM) and Ham's F12 medium (1:1) supplemented with growth factors, hormones and nutrients as described previously (43).
The firefly luciferase gene was removed from the plant expression plasmid pDO432 (33) (FIG. 1) as a 1.9 kb BamHI fragment and cloned into the BamHI site of pSVL (Pharmacia, Piscataway, N.J.), a mammalian expression vector containing the SV40 promoter. The resulting plasmid (pSVLuci; FIG. 2) was digested with XhoI and SalI to produce a 2.4 kb fragment containing the luciferase coding sequences and the SV40 late polyadenylation site. This fragment was inserted into the XhoI site of pMSG (Pharmacia, Piscataway, N.J.), a eukaryotic expression vector containing the MMTV promoter. The resulting MMTV promoter-luciferase fusion plasmid (pMLuci; FIG. 3) was used to transfect NIH/3T3 cells as described below (section El). Similar constructs can be made using luciferase vectors from Clontech (Palo Alto, Calif.).
pMluci (FIG. 3) and pSV2Neo, an antibiotic resistance plasmid (34), were co-transfected into NIH/3T3 mouse fibroblast cells using the calcium phosphate precipitation method (15) with a commercially available kit (Pharmacia, Piscataway N.J.). […] Once sufficient cell numbers were obtained, clones were analyzed based on several criteria: constitutive luciferase production, induction of luciferase expression by dexamethasone (1 μM, Sigma, St. Louis, Mo.), satisfactory attachment to microtiter plates used in the high-throughput screen (see section G) and acceptable standard deviation in multiple luciferase expression assays (see below for assay protocol). […]

G-CSF mRNA = assay: Northern blot of endogenous G-CSF mRNA in 5637 cells; format: cell-based, human; conditions: G-CSF-specific probe, compared to solvent DMSO, FIG. 46
Experimental: Total cellular RNA was isolated from the G21 cell clone or from untransfected 5637 cells following incubation for 6 hours with various transcriptionally modulating chemicals identified in the high-throughput screen. Cells were grown in serum free medium as described above. Total cellular RNA was isolated using the RNAZol method (CINNA/BIOTECX, Friendswood, Tex., Laboratories International, Inc.). Cells were resuspended and lysed with RNAZol solution (1.5 ml/9 cm petri dish) and the RNA was solubilized by passing the lysate a few times through a pipette. Chloroform was added to the homogenate (0.1 ml/1 ml), and samples were shaken for 15 seconds followed by a 5 minute incubation on ice. After centrifuging for 10 minutes, the upper phase was collected and an equal volume of isopropanol was added. Samples were incubated for 45 minutes at −20° C., and the RNA was pelleted for 15 minutes at 12,000×g at 4° C. The RNA pellet was then washed with 70% ethanol and dried briefly under vacuum.
Total cellular RNA was isolated from 5637 cells following incubation with chemicals as described above and electrophoresed in a 1% Agarose-1M Formaldehyde gel. […] Bands were excised and counted in a liquid scintillation counter (LKB, Gaithersburg, Md.), and counts obtained with the G-CSF specific probe were normalized relative to the counts obtained with the B-Actin specific probe.

[2] = system: human growth hormone promoter; assay: hGH promoter-luciferase reporter, cell clone 532 (high-throughput screen); format: cell-based; conditions: 100 nM; FIG. 42
Excerpt: A rat pituitary cell line, designated GC, (4, 25) was used for transfection of plasmids containing the human growth hormone promoter (see below) and was maintained in DMEM and Ham's F12 medium (1:1), supplemented with 12.5% FCS. For HTP screening, transfected GC clones were transferred to serum free defined medium consisting of DMEM and Ham's F12 medium (1:1) supplemented with growth factors, hormones and nutrients as described previously (17, 5).
The SalI-XhoI fragment of pSVLuci (FIG. 2) containing the luciferase coding sequences and the SV40 late polyadenylation site was inserted into pUC 8 (Biorad, Richmond, Calif.), which had been linearized by a SmaI/HinCII digestion and ligated to XhoI linkers (New England Biolabs, Beverly, Mass.). […]
(§1) To assay for luciferase expression in transient expression assays in the various transfected clones, cells were incubated with various transcriptional inducers in serum free defined media, washed 3 times with Dulbecco's phosphate-buffered saline (D-PBS, Gibco) and lysed in Lysis Buffer 1 (50 mM Tris acetate pH 7.9, 1 mM EGTA, 10 mM magnesium acetate, 1 mg/ml bovine serum albumin [BSA], 0.5% Brij 58, 2 mM ATP, 100 mM dithiothreitol [DTT]). […] Samples were counted individually in an LKB (Gaithersburg, Md.) scintillation counter on a setting which allows measurement of individual photons by switching off the coincidence circuit. […]

human G-CSF promoter = assay: G-CSF promoter-luciferase reporter, cell clone G21 (high-throughput screen); format: cell-based; conditions: 5 μg/ml; FIG. 42
Excerpt: A human bladder carcinoma cell line (U5637, ATCC number HTB 9) was used for transfection of plasmids containing the human Granulocyte-Colony Stimulating Factor (G-CSF) promoter (see below) and was maintained in RPMI medium supplemented with 10% FCS. For HTP screening, transfected 5637 clones were transferred to a serum free defined medium identical to that used for the NIH/3T3 clones.
The sequences of OL-1, OL-2 and OL-5 recognize the G-CSF promoter region, OL-4 recognizes the first intron/exon junction and OL-3 recognizes sequences within the second exon (32). […]
as §1

Molecule: C[C@]12CCC(=O)C=C1CC[C@@H]1[C@@H]2[C@@H](O)C[C@]2(C=O)[C@@H](C(=O)CO)CC[C@@H]12 [aldosterone]
- stimulation of the MMTV promoter in cell clone M10 by steroids [1]: stimulates

Molecule: IFN-gamma: a proteinaceous positive regulator
- production of endogenous G-CSF mRNA (G-CSF mRNA): increased

Molecule: CC(=O)[C@H]1CC[C@H]2[C@@H]3CCC4=CC(=O)CC[C@]4(C)[C@H]3CC[C@]12C [progesterone]
- stimulation of the MMTV promoter in cell clone M10 by steroids [1]: did not

Molecule: rat growth hormone releasing factor: known inducer of hGH expression (Bachem) (HADAIFTSSYRRILGQLYARKLLHEIMNRQQGERNQEQRSRFN; Somatoliberin; UniProt P09916 31-73, looked up)
- stimulation of luciferase expression, clone 532 [2]: 2.2 fold

Molecule: lipopolysaccharide
- stimulation of luciferase expression, clone G21 (human G-CSF promoter): 5.7 fold

Molecule: C[C@@H]1C[C@H]2[C@@H]3CCC4=CC(=O)C=C[C@]4(C)[C@@]3(F)[C@@H](O)C[C@]2(C)[C@@]1(O)C(=O)CO [dexamethasone]
- stimulation of luciferase expression, clone M10 ([1]; 1 μM, FIG. 42): 11.6 fold
